Data published in a melting point compilation (Tetko et al.; mined from patent text by program, amines drawn as free bases though some values may be those of a salt).

| Structure (SMILES) | melting point [°C] |
| --- | --- |
| O=CNCN1CCCCCC1=O | 48 |
| Cn1ccnc1Sc1ccc(F)cc1[N+](=O)[O-] | 123 to 126 |
| NC(CO)c1ccc(-c2ccc(SC(F)F)cc2)cc1 (centres undefined) | 108 to 110 |
| C[C@@H](CO)NS(=O)(=O)c1ccccc1[N+](=O)[O-] | 82 to 83 |
| Cc1cc(C)c2c(c1)C=C(C(=O)O)CC2 | 194 to 195 |
| COc1ccc(-c2cncc(OC3SCC(OC(C)=O)C(OC(C)=O)C3OC(C)=O)c2)cn1 (centres undefined) | 172 |
| S=C(c1ccc(Br)cc1)N1CCOCC1 | 135 to 137 |
| CC12CCC(=O)C=C1CCC1C2=CCC2(C)C(C#N)=CCC12 (centres undefined) | 148 to 150 |
| CSC1=NC(C)(C)CCC(C)(C)N1 | 200 to 205 |
| COc1cccc2c1OC(SC)C2=O (centres undefined) | 103 to 105 |
| CC(C)c1ccc(CCCC(=O)O)cc1 | 50 to 51 |
| O=S(=O)(F)c1c(F)nc2ccccn12 | 108 to 110 |
| CCCN(CCC)C1Cc2cccc3c2N(C1)C(=O)NC3 (centres undefined) | 116 to 119 |
| COc1ccc2sc(CC3(O)C4CC5CC(C4)CC3C5)nc2c1 (centres undefined) | 140 to 142 |
| CC1(C)C=C(NC=NC#N)c2cc(C#N)ccc2O1 | 159 to 161 |
| O=C1NC(=S)CCC1N1C(=O)c2ccccc2C1=O (centres undefined) | 225 to 226 |
| O=C(O)c1ccncc1C(=O)c1cc(F)ccc1F | 214 to 216 |
| CCSc1nc(O)ns1 | 129 |
| C1=C(c2cccc3ccccc23)CCN(Cc2ccccc2)C1 | 72 to 74 |
| ON=C1Cc2ccccc2C1 | 145 to 148 |
| CN(CCNC(N)=N[N+](=O)[O-])c1ccc(Cl)nc1 | 119 to 122 |
| CSC(=S)Nc1ccccc1N | 114 |

| Structure (SMILES) | melting point [°C] |
| --- | --- |
| O=c1[nH]cnc2c1ncn2CCO | 274 |
| Cc1ccc(I)c(C(O)(C(F)(F)F)C(F)(F)F)c1 | 38 to 39 |
| CC1Nc2ccccc2NC1=S (centres undefined) | 92 to 94 |
| COC(=O)C12COc3cc(C(F)(F)F)ccc3C1=NN(C(=O)N(C)c1ccc(C(F)(F)F)cc1)C2 (centres undefined) | 105 to 111 |
| CC(Cc1c[nH]c2ccccc12)C1=CCNCC1 (centres undefined) | 125 |
| COC(=O)c1ccc2[nH]c(=O)oc2c1 | 149 to 151 |
| CCCc1c(O)ccc2c1OC(C)(CCC(=O)O)CC2=O (centres undefined) | 152 to 153 |
| COc1cc(F)c(-c2cncc(OC3SCC(O)C(O)C3O)c2)c(F)c1 (centres undefined) | 200 |
| COc1ccc(S(=O)(=O)C=CC(=O)O)cc1 | 123 to 128 |
| CN1CCN(c2cc3c(cc2F)c(=O)c(C(=O)O)cn3C2CSC2)CC1 | 231 to 237 |
| O=[N+]([O-])c1cc(CBr)cc([N+](=O)[O-])c1 | 93 to 94 |
| Cc1cc(S(C)(=O)=O)c(S(C)(=O)=O)cc1C(=O)N=C(N)N | > 240 |
| N#Cc1ccc(N2C(=O)N(CCCCO)C3(CCSCC3)C2=O)cc1C(F)(F)F | 139 to 140 |
| CCCCCCOc1c(F)cc(F)c(C(N)=O)c1F | 89 to 90 |
| O=[N+]([O-])c1cc2c(cc1NCC(O)CO)OCO2 (centres undefined) | 120 to 121 |
| c1cc2c(Nc3ccc4[nH]ncc4c3)ncnc2cn1 | 258 |
| CCOC(=O)C(=O)c1ccc(SCC2CC2)[nH]1 | 46 |
| CC(=O)OCC1OC(n2ccc(=O)[nH]c2=O)C(OC(C)=O)C1OC(C)=O (centres undefined) | 129 to 130 |
| O=C1CC2CSc3sc(Br)cc3C2=NN1c1ccc(Cl)cc1 (centres undefined) | 169 to 170 |
| CCOC(=O)C(C)(C)CCS(N)(=O)=O | 93 to 94 |
| O=C(O)[C@H](CC1CCCCC1)n1cccc1 | 78 to 80 |

Continued, values first:

| melting point [°C] | Structure (SMILES) |
| --- | --- |
| 88 to 90 | COc1ccc(N2c3ccccc3CCC2c2ccccc2)cc1 (centres undefined) |
| 118 to 119 | COC(=O)c1ccc2c(Cl)ccnc2c1 |
| 187 to 188 | CC1(Cc2ccccc2)OC(=O)Nc2ccc(-c3cccc(Cl)c3)cc21 (centres undefined) |
| 250 to 252 | CC(=O)N1CCCCNC1=NC(c1ccccc1)c1ccccc1 |
| 174 to 177 | Cc1ccc(S(=O)(=O)N2CCNC2=Nc2ccccc2)cc1 |
| 172 to 173 | Cc1cc(C(=O)O)ccc1-c1c(C)cccc1C |
| 100 to 101 | COC(=O)c1ccc(Cl)cc1NC(=O)Cc1cccc(C#Cc2ccccc2)c1 |
| 139 to 140 | COc1cc(Nc2nccc(-c3ccc(N4CCN[C@@H](C)C4)nc3)n2)cc(OC)c1OC |
| 211 to 213 | CCOc1cc2c(cc1OCC)[C@@H]1CCCC[C@@H]1N=C2c1ccc(O)nc1 (racemic) |
| 124 to 125 | Cc1cccc(Nc2ccccc2C(=O)NO)c1C |
| 179 to 180 | O=C(O)C(=O)c1ccc(OCCOc2ccc(-c3ccccc3)cc2)cc1 |
| 85 | CC(C)(C)OC(=O)N[C@@H](CCC(=O)c1ccccc1)C(=O)OC(C)(C)C |
| 187 to 189 | CC(C)CC(S)C(=O)NC1(C(=O)NC(CC2(c3cccc4ccccc34)C=CC(c3ccccc3)=CC2)C(=O)O)CCCC1 (centres undefined) |
| 112 to 114 | CCOC(=O)c1ccc2c(c1)CCC(=Cc1cccnc1)C2=O |
| 177 to 178 | COC(=O)C(=CN(C)C)N(C)c1nc(-c2ccc(Cl)cc2)cs1 |
| 199 to 201 | O=C(O)c1ccc(C(Cc2ccc(F)cc2)C(=O)Nc2nc3ccccc3o2)cc1 (centres undefined) |
| 86 to 87 | O=C(c1ccccc1Cl)c1cc(Cl)cc(Br)c1I |
| 88 to 89 | COc1ccc(CCN2CCc3cc(OCc4ccccc4)c(OC)cc3C2)cc1 |
| 155 to 158 | Cc1cc(C)c(Nc2nc(C)ccc2S(=O)(=O)c2ccc(OCc3cccc(C#N)c3)cc2)c(C)c1 |
| 147 to 149 | Cc1ccc(/C=C/C(=O)Nc2cccc(NC(=N)c3ccccc3)c2)cc1 |
| 143 to 145 | COC(=O)c1[nH]c2c(C)ccc(C)c2c1-c1ccccc1 |

| melting point [°C] | Structure (SMILES) |
| --- | --- |
| 80 to 95 | CCOC(=O)CCCCCN1CCC[C@@H](NCc2ccccc2OC)[C@H]1c1ccccc1 (racemic) |
| 140 | O=S1(=O)c2cccc3cccc(c23)N1CCCN1CCC(CC2C=Cc3ccccc32)CC1 (centres undefined) |
| 128 to 129 | CC(=O)Oc1c(-c2ccccc2)sc2nc(C(C)(C)C)ccc12 |
| 118 to 120 | CC[C@@H](Cc1ccc(OC)c(C(=O)NCc2ccc(Oc3ccc(F)c(F)c3)cc2)c1)C(=O)O |
| 210 to 211 | Cc1c(NC(=O)c2ccc(-c3ccc(Cl)s3)cc2)ccc2cc(CN3CCCC3)cnc12 |
| 106 to 110 | NC(Oc1ccccc1)C(O)CCCNc1ccc(Br)cc1 (centres undefined) |
| 120 to 130 | O=C(O)[C@H](Cc1ccccc1)NS(=O)(=O)c1ccc2c(c1)Sc1ccccc1O2 |
| 160 | O=CN(O)C(CS(=O)(=O)c1ccc(-c2ccc(C(F)(F)F)cc2)cc1)c1ccc2c(c1)OCO2 (centres undefined) |
| 196 to 199 | OC(Cn1ccnc1)c1ccc2c(c1)Cc1ccccc1-2 (centres undefined) |
| 61 to 62 | Cc1ccccc1C(=O)c1cc2c(cc1O)CCC2 |
| 210 to 212 | COc1cc(OC)c(-c2cc3ccccc3[nH]2)cc1C=CC(=O)c1ccc(C(=O)O)cc1 |
| 283 to 285 | Cc1noc(-c2nnc3c4ccccc4c(OCc4ncn(C)n4)nn23)n1 |
| 124 | CCOCCn1c(CN2CCN(CCNc3nc4cnccc4[nH]3)CC2)nc2cccnc21 |
| 187 | COCc1nc(C(C)(C)O)c(C(=O)O)n1Cc1ccc(-c2ccccc2-c2nnn[nH]2)cc1 |
| 172 to 174 | O=CN1CCC(C(c2ccccc2)c2ccccc2)CC1 |
| 169 to 171 | Cc1nc(N2CCN(CC3CC3(F)F)C2=O)sc1C(=O)NCc1cccnc1 (centres undefined) |
| 139 to 141 | COc1cc(N(C)C)c(Cl)cc1C(=O)NC1CCN(Cc2ccc(F)cc2)C1 (centres undefined) |
| 159 to 160 | O=C(OCN1C(=O)c2ccccc2S1(=O)=O)c1c(Cl)cncc1Cl |
| > 250 | CC(C)(C)OC(=O)N1CCC(c2ccc3[nH]c(=O)[nH]c3c2)CC1 |
| 154 to 155 | CC1=C(CN2CC(C(=O)O)C2)CCc2cc(OCCCc3ccc(F)cc3)ccc21 |
| 129 to 131 | O=[N+]([O-])c1ccc2c(c1)ncn2-c1ccccc1 |

| melting point [°C] | Structure (SMILES) |
| --- | --- |
| 164 | CCOC(=O)Nc1ccc2oc(-c3ccccc3)cc2c1 |
| 158 | Cc1cc(C)c2cccc(OCc3c(Cl)ccc(S(=O)(=O)N4CCC[C@H]4C(=O)NCCCN(C)C(=O)c4ccc(C=NN)cc4)c3Cl)c2n1 |
| 84 to 87 | CC(C)COC(=O)N[C@@H](Cc1ccc2ccccc2c1)C(=O)CSCc1ccco1 |
| 272 to 274 | Cn1cc2c(=O)c(C(=O)c3ccccc3)cn(C)c2n1 |
| 74 | CNC(=O)[C@@H]1CCCCN1S(=O)(=O)c1ccc(Cl)c(COc2cccc3c(-n4ccnc4)cc(C)nc23)c1Cl |
| 248 | CCCC(=O)N1CCN(C(=O)OC2C3=C(SCCS3)C(=O)N2c2ccc3ccc(Cl)nc3n2)CC1 (centres undefined) |
| 139 to 141 | CCOCc1nc2c(N(Cc3ccccc3)Cc3ccccc3)nc(C)cc2n1NC(=O)OC(C)(C)C |
| 118 to 119 | CCOC(=O)c1c(C)nc2scnc2c1N |
| 139 to 140 | Cc1nnc(-c2ccc3occ(-c4ccc(OS(C)(=O)=O)cc4)c3c2)o1 |
| 162 to 167 | O=C1c2ccccc2C(=O)c2cc(OCC3CO3)ccc21 (centres undefined) |
| 157 to 158 | CCCOc1ccccc1-c1ncc(N)c(=O)[nH]1 |
| 176 to 178 | Cc1ccccc1N1CCN(S(=O)(=O)c2ccc([N+](=O)[O-])cc2)CC1 |
| > 240 | O=C(Nc1ccc(-n2nc(C(F)(F)F)cc2C(F)(F)F)cc1)c1ccc[nH]1 |
| 230 to 240 | CCOC(=O)Nc1cc(N(C)C)nc2nc(=O)on12 |
| 85 to 89 | CNCC1Cc2cc(F)cc(-c3cccc(OC)c3OC)c2O1 (centres undefined) |
| 158 to 160 | C#CC1(OC(=O)c2ccccc2)C(COC(=O)c2ccc(Cl)cc2)OC(n2ccc(=O)[nH]c2=O)C1OC(=O)c1ccccc1 (centres undefined) |
| 209 to 211 | CCOC(=O)NC(C(=O)NN(Cc1ccc(-c2nccs2)cc1)CC(O)C(Cc1ccccc1)NC(=O)C(NC(=O)OC)C(C)CC)C(C)C (centres undefined) |
| 246 to 248 | COc1ccc(Oc2cc(Oc3ccc(OC)cc3)c(S(N)(=O)=O)cc2C(=O)O)cc1 |
| 171 to 173 | CCCc1nc2c(N)nc3cccnc3c2n1CC1(O)CCOC1 (centres undefined) |
